Measured values reported in patent USRE47689E1, “Compounds for treating spinal muscular atrophy” (PTC Therapeutics, Inc., priority 2011, dated 2019).
Like-named read-outs stand apart in the source and are kept apart here.

Experiments:
Smn protein = Smn protein assay in cultured cells (SMN HTRF); format: cell-based, human; conditions: 48 hours; for maximum fold (Fold) increase of Smn protein: SMA patient fibroblast cells, 7-point concentration data, fold increase relative to vehicle control (SMN HTRF); for EC1.5x (concentration giving 1.5-fold Smn protein increase): SMA Type 1 patient fibroblast cells (GM03813), 7-point concentration curve, SMN HTRF, concentration producing 1.5 times Smn protein vs DMSO vehicle control, read-out: EC1.5x for Smn protein expression
Method in brief: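 Lysates in RIPA with protease inhibitors are incubated overnight at room temperature with HTRF anti-SMN antibodies. EC1.5x is derived from fold increase in ΔF over vehicle.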

[1] = system: SMN2 minigene (full length SMN2 minigene mRNA containing SMN2 exon 7); assay: SMN2 minigene mRNA splicing RT-qPCR assay in cultured cells; format: cell-based, human; conditions: Homo sapiens, HEK293-H, read-out: EC1.5x for production of full length SMN2 mRNA
Method in brief: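 HEK293H cells stably carrying the SMN2-A minigene treated 24 h at 37° C with compound (DMSO, 200× stock), then lysed. Multiplex RT-qPCR (SMN primers 0.4 μM final; 40 cycles) measures full-length exon 7-containing minigene mRNA, normalized to GAPDH and to vehicle; EC1.5x derived and binned by stars.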

[2] = HEK293H cells stably transfected with SMN2-A minigene, 24 hours, 7-point concentration curve, 1.5-fold relative to vehicle-treated cells

| melting point [°C] | SMILES | maximum fold (Fold) increase of Smn protein (Smn protein) | EC (1.5-fold) [1, 2] [µM] | EC1.5x (concentration giving 1.5-fold Smn protein increase) (Smn protein) [nM] | EC (1.5-fold) ([1]; 24 h) [µM] |
| --- | --- | --- | --- | --- | --- |
| 210 to 219 | C[C@@H]1CN(c2cc(F)c3cc(-c4cn5ccc(C(F)(F)F)cc5n4)c(=O)oc3c2)C[C@H](C)N1 [Cpd 391, 7-[(3R,5S)-3,5-dimethylpiperazin-1-yl]-5-fluoro-3-[7-(trifluoromethyl)imidazo[1,2-a]pyridin-2-yl]-2H-chromen-2-one] | ** (fold increase between >1.2 and ≤1.35) | 1 to 3 | – | – |
| 200 to 205 | Cc1cc2cc(-c3cc4ccc(N5CCN(C)[C@@H](C)C5)cc4oc3=O)oc2c(C)n1 [Compound 805, 3-(5,7-dimethylfuro[2,3-c]pyridin-2-yl)-7-[(3S)-3,4-dimethylpiperazin-1-yl]-2H-chromen-2-one] | ***** (fold increase >1.65) | < 0.1 | < 300 | – |
| 280 to 281 | Cc1cn2cc(-c3cc4ccc(C5CCNCC5)cc4oc3=O)cnc2n1 [Compound 834, 3-(2-methylimidazo[1,2-a]pyrimidin-6-yl)-7-(piperidin-4-yl)-2H-chromen-2-one] | ***** (fold increase >1.65) | < 0.1 | < 300 | – |
| 212 to 216 | Cc1cn2cc(-c3cc4ccc(CCCN)cc4oc3=O)nc2c(C)n1 [Cpd 927, 7-(3-aminopropyl)-3-(6,8-dimethylimidazo[1,2-a]pyrazin-2-yl)-2H-chromen-2-one] | ** (fold increase between >1.2 and ≤1.35) | 1 to 3 | – | – |
| 147 to 150 | Cc1cn2cc(-c3cc4ccc(CCCNCC5CCCO5)cc4oc3=O)nc2c(C)n1 (stereo not shown) [Compound 932, 3-(6,8-dimethylimidazo[1,2-a]pyrazin-2-yl)-7-{3-[(tetrahydrofuran-2-ylmethyl)amino]propyl}-2H-chromen-2-one] | **** (fold increase between >1.5 and ≤1.65) | < 0.1 | < 300 | – |
| 180 to 182 | CC(=O)O.CCN1CCN(c2ccc3cc(-c4ccc5nc(C)sc5c4)c(=O)oc3c2)C[C@@H]1C [Compound 777, 7-[(3S)-4-ethyl-3-methylpiperazin-1-yl]3-(2-methyl-1,3-benzothiazol-6-yl)-2H-chromen-2-one acetate] | * (maximum fold increase of ≤1.2) | 3 to 30 | – | – |
| 168 to 170 | COc1ccc(-c2cc3ccc(N4CCNCC4)cc3oc2=O)cc1OC [Cpd 316, 3-(3,4-dimethoxyphenyl)-7-(piperazin-1-yl)-2H-chromen-2-one] | ** (fold increase between >1.2 and ≤1.35) | 0.3 to 1 | – | – |

Further lines, the molecule ahead of its results:

| SMILES | melting point [°C] | maximum fold (Fold) increase of Smn protein (Smn protein) | EC (1.5-fold) [1, 2] [µM] | EC1.5x (concentration giving 1.5-fold Smn protein increase) (Smn protein) [nM] | EC (1.5-fold) ([1]; 24 h) [µM] |
| --- | --- | --- | --- | --- | --- |
| Cc1csc2nc(-c3cc4ccc(N5C[C@@H](C)N[C@@H](C)C5)cc4oc3=O)cn12 [Compound 182, 7-[(3R,5S)-3,5-dimethylpiperazin-1-yl]-3-(3-methylimidazo[2,1-b][1,3]thiazol-6-yl)-2H-chromen-2-one] | 211 to 215 | ** (fold increase between >1.2 and ≤1.35) | 1 to 3 | – | – |
| C[C@@H]1CN(c2ccc3cc(-c4cn5cccc(Cl)c5n4)c(=O)oc3c2)C[C@H](C)N1C [Compound 137, 3-(8-chloroimidazo[1,2-a]pyridin-2-yl)-7-[(3R,5S)-3,4,5-trimethylpiperazin-1-yl]-2H-chromen-2-one] | 244 to 247 | *** (fold increase between >1.35 and ≤1.5) | 1 to 3 | – | – |
| Cc1ccc2oc(-c3cc4ccc(N5CCN6CCC[C@@H]6C5)cc4oc3=O)cc2n1 [Compound 721, 7-[(8aR)-hexahydropyrrolo[1,2-a]pyrazin-2(1H)-yl]-3-(5-methylfuro[3,2-b]pyridin-2-yl)-2H-chromen-2-one] | 195 to 198 | * (maximum fold increase of ≤1.2) | 1 to 3 | – | – |
| Cc1ccc(-c2cc3ccc(N4CCNCC4)cc3oc2=O)cn1 [Compound 163, 3-(6-methylpyridin-3-yl)-7-(piperazin-1-yl)-2H-chromen-2-one] | 148 to 150 | * (maximum fold increase of ≤1.2) | – | – | 3 to 30 |
| C[C@@H]1CN(c2ccc3cc(-c4cc5ccccc5o4)c(=O)oc3c2)C[C@H](C)N1 [Compound 604, 3-(1-benzofuran-2-yl)-7-[(3R,5S)-3,5-dimethylpiperazin-1-yl]-2H-chromen-2-one] | 191 to 193 | * (maximum fold increase of ≤1.2) | 0.3 to 1 | – | – |
| COc1ccn2cc(-c3cc4ccc(N5CCCN(C)CC5)cc4oc3=O)nc2c1 [Compound 436, 3-(7-methoxyimidazo[1,2-a]pyridin-2-yl)-7-(4-methyl-1,4-diazepan-1-yl)-2H-chromen-2-one] | 198 to 207 | * (maximum fold increase of ≤1.2) | 3 to 30 | – | – |
| Cc1nn2cc(-c3cc4ccc(N5C[C@@H](C)N[C@@H](C)C5)cc4oc3=O)nc2s1 [Compound 443, 7-[(3R,5S)-3,5-dimethylpiperazin-1-yl]-3-(2-methylimidazo[2,1-b][1,3,4]thiadiazol-6-yl)-2H-chromen-2-one] | 225 to 228 | **** (fold increase between >1.5 and ≤1.65) | < 0.1 | 300 to 1000 | – |
| CN1CCN(c2ccc3cc(-c4cn5ccncc5n4)c(=O)oc3c2)CC1 [Compound 457, 3-(imidazo[1,2-a]pyrazin-2-yl)-7-(4-methylpiperazin-1-yl)-2H-chromen-2-one] | 246 to 249 | ** (fold increase between >1.2 and ≤1.35) | 0.1 to 0.3 | – | – |
| COc1cccc(-c2cc3c(F)cc(N4CCN[C@@H](C)C4)cc3oc2=O)n1 [Compound 469, 5-fluoro-3-(6-methoxypyridin-2-yl)-7-[(3S)-3-methylpiperazin-1-yl]-2H-chromen-2-one] | 199 to 201 | ** (fold increase between >1.2 and ≤1.35) | 0.1 to 0.3 | – | – |
| Cn1cc(-c2cc3ccc(N4CCNCC4)cc3oc2=O)c2ccccc21 [Compound 258, 3-(1-methyl-1H-indol-3-yl)-7-(piperazin-1-yl)-2H-chromen-2-one] | 201 to 203 | * (maximum fold increase of ≤1.2) | 0.3 to 1 | – | – |
| COc1c(F)cc(F)cc1-c1cc2ccc(N3C[C@@H](C)N[C@@H](C)C3)cc2oc1=O [Compound 540, 3-(3,5-difluoro-2-methoxyphenyl)-7-[(3R,5S)-3,5-dimethylpiperazin-1-yl]-2H-chromen-2-one] | 109 to 111 | * (maximum fold increase of ≤1.2) | 3 to 30 | – | – |
| Cc1csc(-c2cc3ccc(N4CCNCC4)cc3oc2=O)c1 [Compound 318, 3-(4-methylthiophen-2-yl)-7-(piperazin-1-yl)-2H-chromen-2-one] | 218 to 220 | * (maximum fold increase of ≤1.2) | – | – | 1 to 3 |
